Experiment [1] concerns the target Amyloid-beta precursor protein (Homo sapiens, UniProt P05067). Put plainly: Inhibition of amyloid beta (1 to 40) (unknown origin) aggregation.
Experiment [2] is filed under the species Mus musculus. The experiment in a line: Reduction in amyloid beta levels in Tg2576 mouse. In kind it is functional.
Experiment [3] is filed under the species Mus musculus. The experiment in a line: Reduction in amyloid beta plaques in Tg2576 mouse. In kind it is functional.

Chain of Amyloid-beta precursor protein (P05067 whole entry): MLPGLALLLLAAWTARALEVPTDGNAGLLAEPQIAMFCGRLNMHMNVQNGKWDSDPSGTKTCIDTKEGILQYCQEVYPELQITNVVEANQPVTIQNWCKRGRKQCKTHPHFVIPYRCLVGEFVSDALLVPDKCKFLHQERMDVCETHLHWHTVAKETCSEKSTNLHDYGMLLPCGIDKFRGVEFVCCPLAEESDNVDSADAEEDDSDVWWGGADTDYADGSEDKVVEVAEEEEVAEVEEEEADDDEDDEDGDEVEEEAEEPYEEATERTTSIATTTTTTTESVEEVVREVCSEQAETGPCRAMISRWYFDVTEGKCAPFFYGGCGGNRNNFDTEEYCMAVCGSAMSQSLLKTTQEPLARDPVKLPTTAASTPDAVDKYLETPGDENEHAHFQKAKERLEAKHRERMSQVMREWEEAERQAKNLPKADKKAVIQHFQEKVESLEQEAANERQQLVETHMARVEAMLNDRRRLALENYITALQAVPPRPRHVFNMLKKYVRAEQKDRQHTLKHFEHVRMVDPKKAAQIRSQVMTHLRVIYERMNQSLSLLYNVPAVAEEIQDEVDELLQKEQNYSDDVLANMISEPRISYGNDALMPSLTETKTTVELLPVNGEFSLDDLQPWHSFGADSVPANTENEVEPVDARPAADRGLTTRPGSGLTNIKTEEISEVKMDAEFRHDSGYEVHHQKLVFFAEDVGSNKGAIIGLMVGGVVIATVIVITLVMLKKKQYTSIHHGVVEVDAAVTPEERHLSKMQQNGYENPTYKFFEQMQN

As a reminder, the IC50 is the concentration at which inhibition is half-maximal. Low readings indicate greater potency in that assay, high ones weaker potency in that assay. As to `CNc1ccc(C(=O)NC(CCCCCNC(=O)OCc2ccccc2)C(=O)O)cc1` (centres undefined), half-maximal inhibition in experiment [1] (IC50) was put at 2750 nM. That is a single-digit micromolar value.

For `O=C(Cc1ccccc1)NC(CSSCC(NC(=O)Cc1ccccc1)C(=O)O)C(=O)O` (centres undefined), it took 1950 nM to reach half-maximal inhibition in experiment [1] (IC50).

Regarding `O=C(O[C@@H]1Cc2c(O)cc(O)cc2O[C@@H]1c1cc(O)c(O)c(O)c1)c1cc(O)c(O)c(O)c1` [EPIGALOCATECHIN GALLATE], the “inhibition (INH)” value in the experiment filed under Mus musculus [2] and in the experiment filed under Mus musculus [3] was 50% each time.
